Results published in US10167262B2, “Herbicidal substituted 3-arylpyrazoles” (FMC CORPORATION, priority 2014, dated 2019).

Columns and labels:
Assay type in all cases: in vivo
[1] = tested on: ducksalad (Heteranthera limosa); assay: Test B flooded paddy test, plant response rating 0-100; settings: Flood, 250 g ai/ha; scale 0 to 100 (0 no effect, 100 complete control); 13 to 15 days
Method in brief: (§1)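 In-water treatment: compound dosed into 3 cm flood over soil, water level unchanged throughout. Controls run alongside; visual assessment at day 13–15.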

[2] = tested on: sedge, umbrella (small-flower umbrella sedge, Cyperus difformis); assay: as above; settings: Flood, 250 g ai/ha; scale 0 to 100 (0 no effect, 100 complete control); 13 to 15 days
Method in brief: as §1

rice (Oryza sativa) = assay: as above; settings: Flood, 250 g ai/ha; scale 0 to 100 (0 no effect, 100 complete control); 13 to 15 days
Method in brief: as §1

[3] = tested on: barnyardgrass (Echinochloa crus-galli); assay: as above; settings: Flood, 250 g ai/ha; scale 0 to 100 (0 no effect, 100 complete control); 13 to 15 days
Method in brief: as §1

[4] = tested on: waterhemp (common waterhemp, Amaranthus rudis); assay: Test C pre-/postemergence greenhouse test, plant response rating 0-100; settings: Preemergence
Method in brief: (§2)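 Scores run from 0, no effect, to 100, complete control, assigned by eye after treated plants and controls spent 13 to 15 days in a greenhouse. Soil-applied treatment went onto freshly sown seed in loam and sand; foliar treatment hit seedlings at the 1- to 4-leaf stage.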

[5] = tested on: oilseed rape (Brassica napus); assay: as above; settings: Preemergence
Method in brief: as §2

[6] = tested on: barnyardgrass (Echinochloa crus-galli); assay: as above; settings: Preemergence
Method in brief: as §2

[7] = tested on: waterhemp_RES2, (ALS & HPPD resistant common waterhemp, Amaranthus rudis); assay: Test E postemergence greenhouse test, plant response rating 0-100; settings: scale 0 to 100
Method in brief: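 Visual ratings, 0 (no effect) to 100 (complete control), made versus controls 14–21 days after postemergence application in the greenhouse. Plants were at 1- to 4-leaf stage (2–18 cm) in peat moss/vermiculite potting medium.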

[8] = tested on: goosegrass (Eleusine indica); assay: Test C postemergence greenhouse test, plant response rating 0-100; settings: for Plant response rating, Goosegrass: scale 0 to 100
Method in brief: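 Formulated compounds applied postemergence; plants 1- to 4-leaf stage. Evaluated visually vs. untreated controls after roughly two weeks (13–15 d) under greenhouse conditions; 100 denotes complete control.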

[9] = tested on: wild poinsettia (Euphorbia heterophylla); assay: Test E pre-/postemergence greenhouse test, plant response rating 0-100; settings: scale 0 to 100; for Poinsettia, Wild plant response rating: Preemergence
Method in brief: (§3)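 Preemergence application to planted silt loam and postemergence application to 2–18 cm seedlings are run simultaneously. Evaluation is visual against controls after 14 to 21 days, scored from 0 (no effect) to 100 (complete control).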

[10] = tested on: Italian ryegrass (Lolium multiflorum); assay: as above; settings: scale 0 to 100; for Ryegrass, Italian plant response rating: Preemergence
Method in brief: as §3

C#CCn1cc(C(=O)c2ccccc2)c(-c2cc(Cl)cc(Cl)c2)n1 [Compound 39, [3-(3,5-dichlorophenyl)-1-(2-propyn-1-yl)-1H-pyrazol-4-yl]phenylmethanone]
Plant response rating, Ducksalad [1]: 0 | Plant response rating, Sedge, Umbrella [2]: 0 | Plant response rating, Rice (rice (Oryza sativa)): 0 | Plant response rating, Barnyardgrass [3]: 0 | Plant response rating, Waterhemp ([4]; 62 g ai/ha): 75 | Plant response rating, Waterhemp ([4]; 125 g ai/ha): 100 | Plant response rating, Waterhemp ([4]; 250 g ai/ha): 100 | Plant response rating, Waterhemp ([4]; 500 g ai/ha): 100 | Plant response rating, Oilseed Rape ([5]; 62 g ai/ha): 0 | Plant response rating, Oilseed Rape ([5]; 125 g ai/ha): 30 | Plant response rating, Oilseed Rape ([5]; 250 g ai/ha): 50 | Plant response rating, Oilseed Rape ([5]; 500 g ai/ha): 80 | Plant response rating, Barnyardgrass ([6]; 62 g ai/ha): 0 | Plant response rating, Barnyardgrass ([6]; 125 g ai/ha): 0 | Plant response rating, Barnyardgrass ([6]; 250 g ai/ha): 0 | Plant response rating, Barnyardgrass ([6]; 500 g ai/ha): 0 | Plant response rating, Waterhemp_RES2 ([7]; 31 g ai/ha): 70 | Plant response rating, Waterhemp_RES2 ([7]; 62 g ai/ha): 75 | Plant response rating, Waterhemp_RES2 ([7]; 125 g ai/ha): 85 | Plant response rating, Waterhemp_RES2 ([7]; 250 g ai/ha): 90 | Plant response rating, Waterhemp_RES2 ([7]; 500 g ai/ha): 90 | Plant response rating (0 to 100), Goosegrass ([8]; 62 g ai/ha): 0 | Plant response rating (0 to 100), Goosegrass ([8]; 125 g ai/ha): 0 | Plant response rating, Goosegrass ([8]; 250 g ai/ha): 0 | Plant response rating, Goosegrass ([8]; 500 g ai/ha): 0 | pest or weed control at 31 g/ha ([9]; Euphorbia heterophylla, post-emergence, Postemergence, 31 g ai/ha, read-out: Plant response rating, Poinsettia, Wild): 0% | pest or weed control at 62 g/ha ([9]; Euphorbia heterophylla, post-emergence, Postemergence, 62 g ai/ha, read-out: Plant response rating, Poinsettia, Wild): 0% | pest or weed control at 125 g/ha ([9]; Euphorbia heterophylla, post-emergence, Postemergence, 125 g ai/ha, read-out: Plant response rating, Poinsettia, Wild): 0% | pest or weed control at 250 g/ha ([9]; Euphorbia heterophylla, post-emergence, Postemergence, 250 g ai/ha, read-out: Plant response rating, Poinsettia, Wild): 0% | pest or weed control at 500 g/ha ([9]; Euphorbia heterophylla, post-emergence, Postemergence, 500 g ai/ha, read-out: Plant response rating, Poinsettia, Wild): 10% | Poinsettia, Wild plant response rating ([9]; 62 g ai/ha): 0 | Poinsettia, Wild plant response rating ([9]; 125 g ai/ha): 0 | Poinsettia, Wild plant response rating ([9]; 250 g ai/ha): 0 | Poinsettia, Wild plant response rating ([9]; 500 g ai/ha): 0 | pest or weed control at 31 g/ha ([10]; Lolium multiflorum, post-emergence, Postemergence, 31 g ai/ha): 0% | pest or weed control at 62 g/ha ([10]; Lolium multiflorum, post-emergence, Postemergence, 62 g ai/ha): 0% | pest or weed control at 125 g/ha ([10]; Lolium multiflorum, post-emergence, Postemergence, 125 g ai/ha): 0% | pest or weed control at 250 g/ha ([10]; Lolium multiflorum, post-emergence, Postemergence, 250 g ai/ha): 0% | pest or weed control at 500 g/ha ([10]; Lolium multiflorum, post-emergence, Postemergence, 500 g ai/ha): 0% | Ryegrass, Italian plant response rating ([10]; 62 g ai/ha): 0 | Ryegrass, Italian plant response rating ([10]; 125 g ai/ha): 0 | Ryegrass, Italian plant response rating ([10]; 250 g ai/ha): 0 | Ryegrass, Italian plant response rating ([10]; 500 g ai/ha): 0
